Data on two compounds can be found in US20210244057A1, “SWEETENER POWDER COMPOSITION AND PREPARATION METHOD THEREFOR” (SAMYANG CORPORATION, priority 2018, published 2021).

A short description of data set [1]: Sensory evaluation of sweetener powder by 15 panelists. To be noted: score on a scale of 5 points, 10% Brix solution. The data set is classed as in vivo. As to the method:
For the sensory evaluation, the powders prepared in Examples 5 and 6 were used as an experimental group, and sugar was used as a control group. Each sample was dissolved to a concentration of 10% Brix and prepared to become the same temperature. 10 ml of each sample was collected and provided. It was expressed as a three-digit number randomly extracted using a random number table. The sample presentation order was always randomly determined, and a lukewarm water that could rinse the mouth was provided together to inspectors. The sensory laboratory was maintained at a constant temperature (25±1° C.) and no odor.
The sensory inspectors selected 15 panelists who have a high level of understanding of sensory tests and have experience in sensory tests. Training was conducted three times a week for one month, and it took an average of 30 minutes for each training session. As for the content and method of evaluation, the score was evaluated on a scale of 5 points for the intensity of sweet taste, persistence of sweet taste, body taste, and bitter taste of the control group and the experimental group. The criteria of sweet taste intensity was compared with the standard sample sugar 10% solution as 4.5 points. The closer to 1 point, the lighter the body taste, and the closer to 5 points, the heavier the taste was.

A short description of data set [2]: Glass transition temperature (Tg) by differential scanning calorimetry (DSC), ASTM D3418. The data set is classed as physicochemical. To be noted: raw material: crystalline allulose in powder state. The procedure: In order to measure the glass transition temperature value (Tg) of the powder product obtained in Examples 1 to 4, and Example 6, differential scanning calorimetry (DSC) analysis was performed according to the method of ASTM D3418, and the specific DSC analysis conditions are as follows.
Equipment name: DSC[differential scanning calorimetry]
Manufacturer: Perkin Elmer
Method: 30 to 250° C., 10° C./min temperature rise, N2 gas purge
The liquid product of Comparative Example 1 was not spray-dried, and measured by the glass transition temperature of the powder obtained by freeze-drying the liquid product. Allulose was measured by the glass transition temperature of crystalline allulose, Reference Example 2 was measured by the glass transition temperature of commercially available indigestible maltodextrin (Samyang Corporation, indigestible maltodextrin, DE 14.9, dietary fiber content 85%), and Reference Example 3 and Reference Example 4 were measured by pulverizing commercially available maltodextrin (Samyang Corporation., Genedex) and commercially available starch syrup (Samyang Corporation, low-intensity starch syrup) at the glass transition temperature.
On the technique in general: In DSC, transitions show as peaks or steps in heat flow.

On to `OC[C@H]1O[C@@](CO)(O[C@H]2O[C@H](CO)[C@@H](O)[C@H](O)[C@H]2O)[C@@H](O)[C@@H]1O` [Control group, sugar], for which the Body taste in data set [1] (1 = lighter, 5 = heavier) is 3.3. Moreover, in data set [1], the Bitter residual taste is 2.2 and the Sweet taste persistence is on record as 3.2. In data set [1] (sugar 10% solution standard = 4.5 points), the Sweet taste worked out at 4.3.
`O=C(CO)C(O)C(O)C(O)CO` (centres unmarked) [Crystalline allulose, allulose] yielded a Tg in data set [2] of −5.5 °C.
